In patent publication US20240327829A1, “CONJUGATE OF SAPONIN, OLIGONUCLEOTIDE AND GALNAC” (priority 2020, published 2024):
Read-outs that look alike come from different tables or passages of the source. [BNA] = bridged nucleic acid (BNA) nucleotide, BNA type not stated for this oligo; [BNANC] = BNA^NC (2'-O,4'-aminoethylene bridged) nucleotide; {C6SH} = thiol C6 linker; d = 2'-deoxy (DNA)

Key:
[1] = tested on: HSP27 gene expression in HepG2 cells; test: HSP27 gene silencing (gene expression analysis, qPCR); format: cell-based, human; details: + fixed 4000 nM SO1861-EMCH
Description: (§1) RNA from cells was isolated and analysed according to standard protocols (Biorad). qPCR primers that were used are indicated in Table A2.

[2] = tested on: HSP27 gene expression in Huh7 cells; test: as above; format: cell-based, human; details: + fixed 4000 nM SO1861-EMCH
Description: as §1

[3] = tested on: apoB gene expression in HepG2 cells; test: ApoB gene silencing (gene expression analysis); format: cell-based, human
Protocol: as §1
(§2) RNA isolation and gene expression analysis from primary mouse and human hepatocytes RNA from cells was isolated using TRI Reagent® Solution (Thermo Scientific) according to the manufacturer's instruction. Conversion into cDNA was performed using iScript™ cDNA Synthesis Kit (BioRad) using standard protocols. ApoB expression levels and levels of specific hepatocyte housekeeping genes were determined using quantitative real-time PCR assays (qRT-PCR) using iTaq™ Universal SYBR® Green Supermix (BioRad) and the Light Cycler 480 (Roche Diagnostics, Rotkreuz, Switzerland) with specific DNA primers, listed in Table A4 (study A) and Table A7 (study B), respectively. Analysis was done by the […] to determine apoB expression relative to 2 hepatocyte-specific housekeeping control mRNAs. Each analysis reaction was performed in triplicate.

[4] = tested on: apoB gene expression in Huh7 cells; test: ApoB gene silencing (gene expression analysis); format: cell-based, human; details: for IC50: + fixed 4000 nM trivalent-GalNAc-L-SO1861 (DAR1)
Protocol: as §1, §2

[5] = tested on: apoB mRNA in primary human hepatocytes; test: apoB mRNA expression analysis in primary human hepatocytes; format: cell-based; details: read-out: apoB RNA levels IC50
Protocol: as §1, §2

apoB RNA in liver tissue = test: ApoB expression analysis in liver tissue (qRT-PCR); format: in vivo, C57BL/6J mice; details: for apoB RNA levels in liver, reduction compared to vehicle: Study A
Protocol: (§3) • i. Dose administration and in-life phase. Per group, 8 C57BL/6J male mice for treatment groups (in Study A, 14 mice in vehicle control group), approximately 6-7 weeks at arrival and 8-9 weeks at dosing, were dosed. The compounds, formulated in PBS or PBS alone (vehicle) according to Table A5 and Table A6, were dosed at 5 ml/kg in the tail vain (intravenously, iv), with dose volumes corresponding to the individual bodyweights. Where applicable, trivalent (GalNAc)3-SO1861 (EMCH) was co-administered at 5 ml/kg in the tail vain (iv) right after the trivalent GalNAc-ApoB conjugate. Animals were weighed weekly and clinical observations were performed 2-3 times daily within the first 48 hrs, and at least once daily thereafter until study end. • ii. Sampling of serum, liver, and kidney tissue. […] At the relevant inter-study post-dose timepoints, 3 animals per timepoint per treatment group (6 animals in the vehicle control group in Study A) were sacrificed to collect terminal bleeds and collect relevant organs, such as liver and kidney tissues for further analyses. at end of study, the remaining 2 animals (4 in the control group in Study A) per group were sacrificed. One half of the liver and one kidney was frozen and used for tissue RNA analysis.
The mRNA was isolated from frozen liver tissue using TRzol® Reagent (Thermo Scientific) according to the manufacturer's instruction. Conversion into cDNA was performed using Script™ cDNA Synthesis Kit (BioRad). ApoB expression levels and levels of specific liver housekeeping genes were determined using quantitative real-time PCR assays (qRT-PCR) using iTaq™ Universal SYBRO Green Supermix (BioRad) and the Light Cycler 480 (Roche Diagnostics, Rotkreuz, Switzerland) with specific DNA primers, listed in Table A4 (Study A) and Table A7 (Study B), respectively. Analysis was done by the ΔCt method to determine apoB expression relative to 2 liver-specific housekeeping control mRNAs. Each analysis reaction was performed in triplicate.

apoB protein = test: Serum apoB protein analysis (ELISA); format: in vivo, C57BL/6J mice; details: Study B; 72 hrs; 2 mg/kg iv; vehicle 156 μg/ml
Protocol: as §3, with “Where applicable, trivalent (GalNAc)3-SO1861 (EMCH) was co-administered at 5 ml/kg in the tail vain (iv) right after the trivalent GalNAc-ApoB conjugate.” left out
ApoB protein levels in mouse serum was determined using an ApoB ELISA (ab230932, Abcam, Cambridge, UK), according to the manufacturer's instruction.

LDL-cholesterol = test: Serum LDL-cholesterol (LDL-C) analysis; format: in vivo, C57BL/6J mice; details: for serum LDL-C reduction compared to vehicle: Study A
Protocol: as §3
LDL-cholesterol was measured in mouse serum, using an LDL-cholesterol specific two-step AU480 assay kit, respectively, from Beckman Coulter, with a photometric measurement according to the manufacturer's instructions.

[6] = In vivo tolerability (clinical observations, body weight); design: species or system C57BL/6J mice; details: Study A; doses and regimens of Table A5
Protocol: as §3

[7] = Endosomal escape enhancing activity of saponin; details: compared with SO1861
[8] = tested on: apoB protein expression in Huh7 cells; test: apoB protein expression in Huh7 hepatocyte cell line; format: cell-based, human
[9] = tested on: primary human hepatocytes; test: Cell viability of primary human hepatocytes; format: cell-based; details: combined with 10 pM CD71-saporin
Protocol: Briefly, the MTS solution was diluted 20× in DMEM without phenol red (PAN-Biotech GmbH) supplemented with 10% FBS. The cells were washed once with 200 μL/PBS well, after which 100 μL diluted MTS solution was added/well. The plate was incubated for approximately 20-30 minutes at 37° C.

[10] = + fixed 4000 nM trivalent-GalNAc-L-SO1861 (DAR1)
[11] = + 300 nM TrivalentGalNAc-SPT001

trivalent-GalNAc-L-HSP27BNA: HSP27BNA (SEQ ID NO: 1) conjugated to trivalent-GalNAc, labile conjugation (GGCACAGCCAGTGGCG; sugars from the 5' end [BNANC]3 d10 [BNANC]3, backbone and methylation of C not given here; further chemistry not fully specified)
IC50 [1]: 0.0001 µM | IC50 [2]: 0.003 µM

trivalent-GalNAc-L-ApoBBNA: ApoBBNA (SEQ ID NO: 2) conjugated to trivalent-GalNAc, labile conjugation (GCCTCAGTCTGCTTCGCACC; sugars from the 5' end [BNA]5 d10 [BNA]5, backbone and methylation of C not given here; further chemistry not fully specified)
IC50 ([3]; + fixed 4000 nM SO1861-EMCH): 0.01 µM | IC50 [3, 10]: 0.05 µM | IC50 [4]: 0.7 µM

ApoB #02 BNA: BNA^NC oligonucleotide 5′-GCattggtatTCA-3′ [SEQ ID NO: 12], fully phosphorothioated, murine and human sequence-compatible, apoB-targeting (GCATTGGTATTCA; sugars from the 5' end [BNANC]2 d8 [BNANC]3, all phosphorothioate, 5' {C6SH}, methylation of C not given here)
IC50 ([5]; relative ApoB #02 BNA concentration, no transfection agent): 0.4 µM | IC50 ([5]; transfection with RNAi-MAX): 0.008 µM | apoB RNA levels in liver, reduction compared to vehicle (apoB RNA in liver tissue; 24 hrs, 0.1 mg/kg iv): not noticeably reduced | apoB RNA levels in liver, reduction compared to vehicle (apoB RNA in liver tissue; 24 hrs, 1 mg/kg iv): ~15% | apoB RNA levels in liver, reduction compared to vehicle (apoB RNA in liver tissue; 24 hrs, 2 mg/kg iv): ~21% | apoB RNA levels in liver, reduction compared to vehicle (apoB RNA in liver tissue; 72 hrs, 2 mg/kg iv): 39% | apoB RNA levels in liver, reduction compared to vehicle (apoB RNA in liver tissue; 336 hrs, 2 mg/kg iv): 30% | apoB RNA levels in liver, % of vehicle control (apoB RNA in liver tissue; Study B, 72 hrs, 2 mg/kg iv): 53% | serum apoB protein level (apoB protein): 57 µg/mL | serum LDL-C reduction compared to vehicle (LDL-cholesterol; 24 hrs, 0.1 mg/kg iv): not noticeably reduced | serum LDL-C reduction compared to vehicle (LDL-cholesterol; 24 hrs, 1 mg/kg iv): not noticeably reduced | serum LDL-C reduction compared to vehicle (LDL-cholesterol; 24 hrs, 2 mg/kg iv): not noticeably reduced | serum LDL-C reduction compared to vehicle (LDL-cholesterol; 72 hrs, 2 mg/kg iv): ~50% | serum LDL-C reduction compared to vehicle (LDL-cholesterol; 336 hrs, 2 mg/kg iv): ~40% | serum LDL-C level (LDL-cholesterol; Study B, 72 hrs, 2 mg/kg iv, vehicle 4 mg/dl): 2 mg/dL | tolerability [6]: well tolerated

CC(=O)OC1C(C)OC(OC2C(C)OC(OC(=O)[C@]34CCC(C)(C)CC3C3=CCC5[C@@]6(C)CC[C@H](OC7OC(C(=O)O)C(O)C(OC8OCC(O)C(O)C8O)C7OC7OC(CO)C(O)C(O)C7O)[C@@](C)(C=O)C6CC[C@@]5(C)[C@]3(C)C[C@H]4O)C(OC3OC(C)C(OC4OCC(O)C(OC5OCC(O)C(O)C5O)C4O)C(OC4OCC(O)C(O)C4O)C3O)C2O)C(O)C1O (some centres unmarked) [SO1832]
endosomal escape enhancing activity towards an oligonucleotide (or protein toxin) in the endosome [7]: about equally active as SO1861

(GalNAc)3-ApoB: trivalent GalNAc conjugated with ApoB antisense BNA oligonucleotide (SEQ ID NO: 2); linker type not stated (GCCTCAGTCTGCTTCGCACC; sugars from the 5' end [BNA]5 d10 [BNA]5, backbone and methylation of C not given here; further chemistry not fully specified)
lowering of apoB mRNA expression [4, 11]: neither TrivalentGalNAc-ApoBBNA, nor the combination of TrivalentGalNAc-ApoBBNA and TrivalentGalNAc-SPT001 induce lowering | lowering of apoB mRNA expression ([4]; alone): neither TrivalentGalNAc-ApoBBNA, nor the combination of TrivalentGalNAc-ApoBBNA and TrivalentGalNAc-SPT001 induce lowering | lowering of apoB protein expression [8, 11]: neitherTrivalentGalNAc-ApoBBNA, northe combination ofTrivalentGalNAc-ApoBBNA and TrivalentGalNAc-SPT001 induced marked lowering | lowering of apoB protein expression ([8]; alone): neitherTrivalentGalNAc-ApoBBNA, northe combination ofTrivalentGalNAc-ApoBBNA and TrivalentGalNAc-SPT001 induced marked lowering

trivalent-GalNAc-S-HSP27BNA: HSP27BNA (SEQ ID NO: 1) conjugated to trivalent-GalNAc, stable conjugation (GGCACAGCCAGTGGCG; sugars from the 5' end [BNANC]3 d10 [BNANC]3, backbone and methylation of C not given here; further chemistry not fully specified)
IC50 [1]: 0.0001 µM | IC50 [2]: 0.003 µM

trivalent-GalNAc-S-ApoBBNA: ApoBBNA (SEQ ID NO: 2) conjugated to trivalent-GalNAc, stable conjugation (GCCTCAGTCTGCTTCGCACC; sugars from the 5' end [BNA]5 d10 [BNA]5, backbone and methylation of C not given here; further chemistry not fully specified)
IC50 ([3]; + fixed 4000 nM SO1861-EMCH): 0.01 µM | IC50 [3, 10]: 0.05 µM | IC50 [4]: 0.7 µM

CC(=O)OC1C(C)OC(OC2C(C)OC(OC(=O)[C@]34CCC(C)(C)CC3C3=CCC5[C@@]6(C)CC[C@H](OC7OC(C(=O)O)C(O)C(OC8OCC(O)C(O)C8O)C7OC7OC(CO)C(O)C(O)C7O)[C@@](C)(/C=N/NC(=O)CCCCCN7C(=O)C=CC7=O)C6CC[C@@]5(C)[C@]3(C)C[C@H]4O)C(OC3OC(C)C(OC4OCC(O)C(OC5OC(CO)C(O)C(O)C5O)C4O)C(O)C3O)C2O)C(O)C1OC1OCC(O)C(O)C1O (some centres unmarked) [SO1861-EMCH]
increase of potency (factor) when cell viability of liver cells is considered [9]: ~10
